Measurements taken from patent publication US10426159B1, “Highly efficient enhancers for antifreeze protein activity” (The Trustees of California State University, priority 2012, dated 2019).
Entries after “also recorded” stand apart in the source; their conditions may differ. Like-named read-outs stand apart in the source and are kept apart here.

T1: Dendroides canadensis antifreeze protein DAFP-1 (SEQ. ID 1, amino acid 28 through amino acid 108) (Dendroides canadensis, UniProt O46352)
T1 construct: b42 prefers 28-108
T1 sequence (O46352 26-108): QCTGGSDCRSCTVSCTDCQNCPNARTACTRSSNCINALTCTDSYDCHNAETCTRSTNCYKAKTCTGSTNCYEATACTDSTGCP

B1: DAFP-1: Dendroides canadensis antifreeze protein, recombinantly expressed in E. coli; SEQ. ID 1 amino acids 28 through 108 (protein, listed as Dendroides canadensis)
chain: TGGSDCRSCTVSCTDCQNCPNARTACTRSSNCINALTCTDSYDCHNAETCTRSTNCYKAKTCTGSTNCYEATACTDSTGCP
notes: Dendroides canadensis antifreeze protein, recombinantly expressed in E. coli; ID 1 amino acids 28 through 108

Legend:
[1] = molecular target: T1, Dendroides canadensis antifreeze protein DAFP-1 (SEQ. ID 1, amino acid 28 through amino acid 108); assay: Size-exclusion HPLC (Hummel and Dreyer gel filtration method) of NADH binding to DAFP-1; conditions: pH 7.00, ambient temperature, DAFP-1 1.5-20 μM, NADH 0-270 μM, nonlinear regression
Experimental: The formation of 1:1 complex of DAFP-1 and NADH was further confirmed by HPLC analysis. With the gel filtration method of Hummel and Dreyer, the size exclusion column can be equilibrated with a buffer containing the ligand at a known concentration. The protein sample prepared in the buffer (containing the ligand at the same concentration) is injected into the equilibrated column. If binding occurs, the concentrations of the ligand in the elution buffer and in the elution are usually different. […] The bound ligand can be determined more precisely using the internal calibration method. […]
The binding of NADH to DAFP-1 was characterized using HPLC by an improved gel filtration method of Hummel and Dreyer (Hummel and Dreyer, 1962; Parsons, 1980). […] The eluates were monitored at 220 nm. […] The initial concentrations of NADH were determined using the molar extinction coefficient (ε340=6.22×10^3M^−1cm^−1) (Dawson et al., 1985). […] The amount of bound NADH was determined by the internal calibration method (Parsons 1980; Sun and Hsiao, 1993). The amount of free NADH is obtained fromthe difference of total NADH and calculated bound NADH. […]

DAFP-1 = assay: Antifreeze (TH) activity measurements by differential scanning calorimetry: enhancement of TH activity of DAFP-1; type: biochemical, Dendroides canadensis; conditions: for molar enhancement effectiveness order / enhancement ability for the TH activity of DAFP-1 (in words, relative): pH 7.5; for molar enhancement effectiveness order: FIG. 2 and FIG. 3
Text: (§1) The pH of the final samples was 7.5.

[2] = Solubility of enhancer in the TH test system; type: physicochemical
Text: as §1

[3] = tested on: DAFPs: DAFP-1, -2, -4, and -6; assay: TH enhancement by exemplified enhancers for DAFPs; type: biochemical, Dendroides canadensis

Molecule | molar enhancement effectiveness order (DAFP-1; DSC, DAFP-1 453 μM) | enhancement ability for the TH activity of DAFP-1 (in words, relative) (DAFP-1; DSC, DAFP-1 453 μM) | other results
NC(=O)C1=CN([C@@H]2O[C@H](COP(=O)(O)OP(=O)(O)OC[C@H]3O[C@@H](n4cnc5c(N)ncnc54)[C@H](O)[C@@H]3O)[C@@H](O)[C@H]2O)C=CC1 [NADH, (3-nicotinamide adenine dinucleotide, reduced] | NADH>NAD>TNAD>PAAD | – | Kd [1]: 280 ± 20 nM
Nc1ncnc2c1ncn2[C@@H]1O[C@H](COP(=O)(O)OP(=O)(O)O)[C@@H](O)[C@H]1O [ADP, adenosine 5′-diphosphate] | – | less than that of ADPR; also recorded: lower than that of AMP | –
O=P(O)(O)OP(=O)(O)O [pyrophosphate] | ADPR>AMP>adenosine>R5P>pyrophosphate>ribose | – | –
NC(=O)C1=CN([C@@H]2O[C@H](COP(=O)(O)OP(=O)(O)OC[C@H]3O[C@@H](n4cnc5c(N)ncnc54)[C@H](OP(=O)(O)O)[C@@H]3O)[C@@H](O)[C@H]2O)C=CC1 [NADPH, (3-nicotinamide adenine dinucleotide phosphate, reduced] | – | most efficient enhancer; also recorded: much higher than any of the known enhancers | –
Nc1ncnc2c1ncn2[C@@H]1O[C@H](COP(=O)(O)O)[C@@H](O)[C@H]1O [AMP, (−)-adenosine 5′-monophosphate] | ADPR>AMP>adenosine>R5P>pyrophosphate>ribose | – | –
O=C[C@H](O)[C@H](O)[C@H](O)CO [ribose, D-(−)-ribose] | ADPR>AMP>adenosine>R5P>pyrophosphate>ribose | least enhancement | –
NC(=S)c1ccc[n+]([C@@H]2O[C@H](COP(=O)([O-])OP(=O)(O)OC[C@H]3O[C@@H](n4cnc5c(N)ncnc54)[C@H](O)[C@@H]3O)[C@@H](O)[C@H]2O)c1 [TNAD, thionicotinamide adenine dinucleotide] | NADH>NAD>TNAD>PAAD | very efficient enhancement ability | –
NC(=O)c1ccc[n+]([C@@H]2O[C@H](COP(=O)([O-])OP(=O)(O)OC[C@H]3O[C@@H](n4cnc5c(N)ncnc54)[C@H](O)[C@@H]3O)[C@@H](O)[C@H]2O)c1 [NAD, (3-nicotinamide adenine dinucleotide] | NADH>NAD>TNAD>PAAD | very similar to that of its reduced form, NADH, although slightly lower | –
Cc1cc2nc3c(=O)[nH]c(=O)nc-3n(C[C@H](O)[C@H](O)[C@H](O)COP(=O)(O)OP(=O)(O)OC[C@H]3O[C@@H](n4cnc5c(N)ncnc54)[C@H](O)[C@@H]3O)c2cc1C [FAD, flavin adenine dinucleotide] | – | less than those of NADH and NAD analogs | solubility (in words) [2]: limited by its solubility
Nc1ncnc2c1ncn2[C@@H]1O[C@H](CO)[C@@H](O)[C@H]1O [adenosine] | ADPR>AMP>adenosine>R5P>pyrophosphate>ribose | – | solubility (in words) ([2]; TH test system): low solubility; enhancement ability for the TH activity of DAFP-1 at 0.080M (DAFP-1; enhancer 0.080M): lower than that of ADP
Nc1ncnc2c1ncn2C1OC(COP(=O)(O)OP(=O)(O)OCC2OC([n+]3cccc(C=O)c3)C(O)C2O)C(O)C1O (stereo not shown) [PAAD, 3-pyridine aldehyde adenine dinucleotide] | NADH>NAD>TNAD>PAAD | very efficient enhancement ability; also recorded: least effective enhancer among the analogs | –
CC(C)(COP(=O)(O)OP(=O)(O)OC[C@H]1O[C@@H](n2cnc3c(N)ncnc32)[C@H](O)[C@@H]1OP(=O)(O)O)[C@@H](O)C(=O)NCCC(=O)NCCS [CoA, coenzyme A] | – | less than those of NADH and NAD analogs | –
Nc1ncnc2c1ncn2[C@@H]1O[C@H](COP(=O)(O)OP(=O)(O)OC[C@H]2OC(O)[C@H](O)[C@@H]2O)[C@@H](O)[C@H]1O (stereo partly shown) [ADPR, adenosine 5′-diphosphoribose] | ADPR>AMP>adenosine>R5P>pyrophosphate>ribose | most efficient enhancement ability among these fragments | –
Nc1ncnc2c1ncn2[C@@H]1O[C@H](COP(=O)(O)OP(=O)(O)OP(=O)(O)O)[C@@H](O)[C@H]1O [ATP] | – | – | increase of the TH activity of DAFPs [3]: at least 5 fold
O=C[C@H](F)[C@@H](O)[C@H](O)[C@H](O)CO [2-fluoro-2-deoxy-D-glucose] | – | – | increase of the TH activity of DAFPs [3]: 2 fold
O=C[C@H](O)[C@H](O)[C@H](O)COP(=O)(O)O [R5P, D-ribose-5-phosphate] | ADPR>AMP>adenosine>R5P>pyrophosphate>ribose | – | –
O=c1[nH]c(=O)n([C@@H]2O[C@H](CO)[C@@H](O)[C@H]2O)cc1F [5-Fluorouridine] | – | – | increase of the TH activity of DAFPs [3]: 2 fold
B1 | – | – | TH activity of the protein sample alone (DAFP-1; DAFP-1 453 μM, no enhancer, DSC): 0.69±0.01 °C; TH activity of DAFP-1 as a function of pH (DAFP-1; pH 2 to pH 12): unchanged
